Legend:
[1] = system: Tel22 (DNA, G4) AGGGTTAGGGTTAGGGTTAGGG; assay: ITC; conditions: 20 mM KCl; 10 mM Tris, pH 7.5, 37°C; one set of equivalent sites
[2] = system: wtTel26 (DNA, G4) TTAGGGTTAGGGTTAGGGTTAGGGTT; assay: ITC; conditions: 20 mM KCl; 10 mM Tris, pH 7.5, 25°C; one set of equivalent sites
[3] = system: Tel26 (DNA, G4) AAAGGGTTAGGGTTAGGGTTAGGGAA; assay: ITC; conditions: 20 mM KCl; 10 mM Tris, pH 7.5, 25°C; site 1 of 2; two sequential sites
[4] = system: scT22 (DNA, single strand) GGATGTGAGTGTGAGTGTGAGG; assay: CD titration; conditions: 20 mM KCl; 10 mM Tris, pH 7.5, 25°C; 4 µM DNA; two bases per metal complex; per base
[5] = system: Tel22 (DNA, G4) AGGGTTAGGGTTAGGGTTAGGG; assay: CD melting at 290 nm; conditions: 20 mM KCl; 10 mM Tris, pH 7.5; 4 µM DNA, complex at 2:1 molar ratio
[6] = system: wtTel26 (DNA, G4) TTAGGGTTAGGGTTAGGGTTAGGGTT; assay: CD melting at 290 nm; conditions: 20 mM KCl; 10 mM Tris, pH 7.5; 4 µM DNA, complex at 2:1 molar ratio
[7] = system: Tel26 (DNA, G4) AAAGGGTTAGGGTTAGGGTTAGGGAA; assay: CD melting at 290 nm; conditions: 20 mM KCl; 10 mM Tris, pH 7.5; 4 µM DNA, complex at 2:1 molar ratio

Ka [1]: 35.1 ± 0.6 × 10^5 M^-1
Ka [2]: 4.7 ± 1.7 × 10^5 M^-1
Ka [3]: 8.7 ± 3.3 × 10^5 M^-1
Ka [4]: 270000 M⁻¹
ΔTm [5]: 10.4 °C
ΔTm [6]: 15.2 °C
ΔTm [7]: 13.8 °C
SMILES: CN(C)CCNCc1ccnc2c1ccc1cccnc12.CN(C)CCNCc1ccnc2c1ccc1cccnc12.[Ni+2]

— paper PMC3596309 (2013)
